Results: patent US20260224547A1, “COMPOSITIONS COMPRISING ANATABINE AND USES THEREOF” (Philip Morris Products S.A., priority 2021, published 2026)

How the values were obtained:
[1] = tested on: HEK-293, SH-SY5Y, primary human keratinocytes, THP-1 differentiated with PMA; test: Cell viability, CellTiterGlo (ATP content), used to select concentrations; assay type: cell-based; conditions: 24 hours of exposure; no more than 400 μM anatabine free base
[2] = tested on: PMA-differentiated THP-1 cell lysates; test: DIA mass spectrometry proteomics of cell lysates; assay type: cell-based, human; conditions: 100, 200, 300, 400 μM for 24 hours; adjusted p-value<0.05
Method: To confirm the increased expression of target genes of NRF2 transcription factor at the protein level, proteins were profiled by untargeted mass spectrometry in PMA-differentiated THP-1 cell lysates after anatabine treatment (100, 200, 300, 400 μM) for 24 hours.
Samples were processed using PREOMICS IST KIT (PreOmics GmbH, Planegg/Martinsried, Germany) as described in the manufacturer's protocol. Briefly, 100 μl of PREOMICS LYSE BUFFER were added to the cells, samples were incubated at 90° C. for 10 min and sonified for 30 sec with a sonifier (Brandson, Danbury, Connecticut, USA) at 10% amplitude. Protein amount was determined using the PIERCE 660 NM PROTEIN ASSAY (Pierce Biotechnology, Rockford, USA) following the manufacturer's protocol. Samples were normalized to 0.5 μg/μl and 40 μg was further processed with PREOMICS IST KIT with a 3 h trypsin digestion. Peptides were purified on the cartridge, dried overnight on a vacuum concentrator (Martin Christ, Germany) and re-suspended in 50 μL of LC SOLUTION (Biognosys AG, Switzerland). 1 μL of iRT reference peptides (Biognosys AG, Switzerland) was added to 19 μL of processed sample. Samples were analysed with an EASY 1000 NANOLC (ThermoFisher Scientific) connected online to a Q-Exactive (ThermoFisher Scientific). […]

NRF2 reporter cells = test: Cell viability measured with ATP assay alongside NRF2 translocation (FIG. 4 to 7)
Text: FIGS. 5A to 5C: bar and line graphs showing NRF2 translocation presented as log 2 fold change compared to vehicle control (bars) and cell viability measured with ATP assay and presented as a percentage of the vehicle control (line) for anatabine (FIG. 5A), dimethyl fumarate (AlfaAesar) (FIG. 5B), and nornicotine (FIG. 5C).
FIGS. 6A to 6C: bar graphs showing NRF2 translocation presented as log 2 fold change compared to vehicle control (bars) and cell viability measured with ATP assay and presented as a percentage of the vehicle control (line) for anatabine (FIG. 6A), dimethyl fumarate (Sigma) (FIG. 6B), and sulforaphane (FIG. 6C).
FIGS. 7A and […]: bar graphs showing NRF2 translocation presented as log 2 fold change compared to vehicle control (bars) and cell viability measured with ATP assay and presented as a percentage of the vehicle control (line) for cotinine (FIG. 7A) and nicotine (FIG. 7B).

## C1=CCC(c2cccnc2)NC1 (racemic) [anatabine, 1,2,3,6-Tetrahydro-2,3′-bipyridine]
[1]
  cell viability (ATP content vs medium-only control): ≥ 80%
[2]
  intracellular protein products of NRF2 target genes HMOX1, GCLM, NQO1 and TXNRD1: significantly expressed
NRF2 reporter cells; 250 μM
  cell viability, percentage of the vehicle control: above 85%
NRF2 reporter cells; 500 μM
  cell viability, percentage of the vehicle control: above 85%
NRF2 reporter cells; higher concentrations of the tested range
  cell viability at higher concentrations: high cell viability
